In series [1] the test system is RCC patient derived xenografts (PDX). Briefly: In vivo efficacy in sixteen RCC patient derived tumor xenograft models (PDX). Also noted: species or system female NMRI nu/nu mice (human tumor xenografts). The following applies: 16 s.c. RCC PDX models, n = 5 per group; p.o. up to 70 days; Compound A 100 mg/kg QD, axitinib 4 mg/kg BID, cabozantinib 10 mg/kg QD; progression = RTV 173%. For orientation: Xenograft models place foreign cells or tissue in a host animal.
Experimental: All experiments and protocols were approved by animal welfare body and local authorities, and were conducted according to all applicable international, national and local laws and guidelines. Only animals with unobjectionable health were selected to enter testing procedures. The animals (female NMRI nu/nu mice (NMRI-Foxn1^nu); Envigo RMS GmbH, Netherlands) were delivered at the age of four to six weeks and were used for experiments after at least one week of acclimatization. Animals were arbitrarily numbered during tumor implantation using radio frequency identification transponders. Each cage was labeled with a record card indicating all relevant experimental details.
The tumor xenografts were derived from surgical specimens from human cancer patients. Following excision at surgery, tumor pieces were subcutaneously implanted into immunodeficient mice and are therefore referred to as patient-derived tumor xenografts (PDX). Establishment and characterization of the PDXs was performed following their primary implantation into immunodeficient mice (passage 1). The tumor xenografts were passaged until establishment of a stable growth pattern.
Axitinib: A dosing solution of 0.4 mg/ml for dosing at 4 mg/kg/dose was prepared daily by dissolving 6.4 mg dry matter in 16 ml vehicle and stirring for at least 30 min. If necessary, the solution was sonicated for 2 min.
Cabozantinib: A dosing solution of 1 mg/ml for dosing at 10 mg/kg/dose was prepared directly before administration by slowly adding 0.2 ml 100% propylene glycol to 12 mg cabozantinib. It was stirred vigorously on a magnetic stirrer until a fine suspension with clumps formed, followed by vortexing briefly for 15-20 s. A further 3.4 ml propylene glycol was added and the stirring and vortexing steps were repeated. Then 600 µl 100% Tween 80 was added while stirring continuously followed by vortexing briefly for 15-20 s. The solution was then sonicated for 10 min and 7.8 ml D5W was added while stirring slowly. At this stage the solution was clear with lots of air bubbles. Care was taken to exclude these when drawing the suspension into a syringe for administration of therapy.
The resulting white suspension was stirred for two hours on a magnetic stirrer with a hot plate (Phoenix Instruments, model RSM-10HS) at 50° C. The suspension was brought to room temperature and mixed well each time before transferring to a syringe for dosing.
Tumor cell inoculation: Tumor fragments were obtained from xenografts in serial passage in nude mice. After removal from donor mice, tumors were cut into fragments (3-4 mm edge length) and placed in PBS containing 10% penicillin/streptomycin. Recipient animals were anesthetized by inhalation of isoflurane and received unilateral or bilateral tumor implants subcutaneously in the flank.
Randomization: Animals and tumor implants were monitored daily until solid tumor growth was detectable in a sufficient number of animals. At randomization, the volume of growing tumors was determined. […] Animals not used for experiments where available were used as satellite animals for PD sampling. The day of randomization was designated as day 0 of the experiment. The time from implantation to randomization at a standard tumor volume is expressed in days as “Induction time (IT)”. Induction times of tumors are routinely recorded, and a median IT is calculated for characterization purposes.
Tumor measurements and calculations: Tumor length (L) and width (W) were measured twice weekly by calipers. The tumor volume was calculated using the formula L×W^2/2. Relative volumes of individual tumors (individual RTVs) for Day x were calculated by dividing the absolute individual tumor volume on Day x (Tx) by the absolute individual tumor volume of the same tumor on the day of randomization (Tr) multiplied by 100%.

The conditions of series [2]: clinical trials; cited from earlier work.

Entries after “also recorded” stand apart in the source; their conditions may differ.

Consider `O=C(NCc1cc(F)cc(F)c1)[C@@]1(O)CCN(c2ccc3[nH]ccc3c2)C1=O` [Compound A, (S)-3-Hydroxy-1-(1H-indol-5-yl)-2-oxo-pyrrolidine-3-carboxylic acid 3,5-difluoro-benzylamide], for which, in series [1], the “tumor growth / tumor progression under monotherapy treatment” value (“tumor growth / tumor progression” below) was “progressed under monotherapy treatment; also recorded: did not strongly inhibit tumor growth, and tumors progressed under treatment”. Consider `CO[C@@H]1[C@H](OC(=O)/C=C/C=C/C=C/C=C/C(=O)O)CC[C@]2(CO2)[C@H]1[C@@]1(C)O[C@@H]1CC=C(C)C` [fumagillin], for which the neurotoxicity entry in series [2] is given as “pronounced neurotoxicity”. In the case of `COc1cc2nccc(Oc3ccc(NC(=O)C4(C(=O)Nc5ccc(F)cc5)CC4)cc3)c2cc1OC` [cabozantinib, N-{4-[(6,7-dimethoxyquinolin-4-yl)oxy]phenyl}-N′-(4-fluorophenyl)cyclopropane-1,1-dicarboxamide], in series [1], the “tumor growth / tumor progression” value is “progressed under monotherapy treatment; also recorded: did not strongly inhibit tumor growth, and tumors progressed under treatment”.

For the compound `CNC(=O)c1ccccc1Sc1ccc2c(/C=C/c3ccccn3)n[nH]c2c1` [axitinib, N-methyl-2-({3-[(1E)-2-(pyridin-2-yl)ethenyl]-1H-indazol-6-yl}sulfanyl)benzamide], the “tumor growth / tumor progression” value in series [1] is “progressed under monotherapy treatment; also recorded: did not strongly inhibit tumor growth, and tumors progressed under treatment”.

These data come from patent publication US20230248695A1, “COMBINATIONS OF CANCER THERAPEUTICS” (Merck Patent GmbH, priority 2020, published 2023).
